Data: patent US5510478A, “2-arylamidothiazole derivatives with CNS activity” (American Home Products Corporation, priority 1994, dated 1996)
Read-outs that look alike come from different tables or passages of the source.

Columns and labels:
[1] = test system: 5-HT1A serotonin receptor; settings: standard for anxiolytic activity; cited from earlier work
M1 receptor (rat cortex) = target: T1, M1 receptor (rat cortex) (Rattus norvegicus, UniProt P08482); test: M1 [3H]pirenzepine binding in rat cortex; settings: for inhibition at 1 µM: read-out: M1 3H PZ binding in rat cortex at 1 μM, % inhibition
T1 construct: from tissue; host or cells: rat brain cortex
T1 sequence (P08482 1-460): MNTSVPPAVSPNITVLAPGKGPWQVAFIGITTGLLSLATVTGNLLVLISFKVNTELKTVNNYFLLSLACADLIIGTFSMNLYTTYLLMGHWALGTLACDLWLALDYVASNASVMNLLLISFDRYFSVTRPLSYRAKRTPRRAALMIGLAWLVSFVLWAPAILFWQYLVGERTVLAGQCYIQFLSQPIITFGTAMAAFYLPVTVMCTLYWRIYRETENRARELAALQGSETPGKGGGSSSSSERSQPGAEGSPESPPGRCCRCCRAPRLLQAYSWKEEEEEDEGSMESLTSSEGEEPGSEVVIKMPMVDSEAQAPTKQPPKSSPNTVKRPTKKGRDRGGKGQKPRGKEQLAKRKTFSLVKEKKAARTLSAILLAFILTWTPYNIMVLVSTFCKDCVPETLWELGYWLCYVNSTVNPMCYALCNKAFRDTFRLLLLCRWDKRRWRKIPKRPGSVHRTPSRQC

dopamine D-2 receptor = target: T2, dopamine D-2 receptor (Rattus norvegicus, UniProt P61169); test: Dopamine D-2 receptor binding, 3H-spiroperidol, limbic brain tissue
T2 construct: from tissue; host or cells: limbic brain tissue (homogenate)
T2 sequence (P61169 whole entry): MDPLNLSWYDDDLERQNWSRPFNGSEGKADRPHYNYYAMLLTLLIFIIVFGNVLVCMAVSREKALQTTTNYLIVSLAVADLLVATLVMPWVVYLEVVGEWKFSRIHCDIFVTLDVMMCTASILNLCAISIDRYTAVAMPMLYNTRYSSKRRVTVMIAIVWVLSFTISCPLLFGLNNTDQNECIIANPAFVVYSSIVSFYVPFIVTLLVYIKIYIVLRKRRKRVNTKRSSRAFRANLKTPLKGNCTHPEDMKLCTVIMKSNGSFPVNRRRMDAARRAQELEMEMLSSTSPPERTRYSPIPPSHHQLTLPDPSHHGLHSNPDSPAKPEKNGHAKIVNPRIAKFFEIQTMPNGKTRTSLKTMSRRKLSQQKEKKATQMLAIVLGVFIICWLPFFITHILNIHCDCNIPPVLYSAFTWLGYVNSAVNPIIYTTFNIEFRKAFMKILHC
Method: High affinity for the dopamine D-2 receptor was established by the standard experimental test procedure of Fields, et al., Brain Res., 136, 578 (1977) and Yamamura et al., eds., Neurotransmitter Receptor Binding, Raven Press, N.Y. (1978) wherein homogenized limbic brain tissue is incubated with ^3 H-spiroperidol and various concentrations of test compound, filtered and washed and shaken with Hydrofluor scintillation cocktail (National Diagnostics) and counted in a Packard 460 CD scintillation counter.

[2] = test system: 5-HT1A serotonin receptor; test: Serotonin 5-HT1A receptor binding, displacement of [3H]8-OHDPAT
Text: High affinity for the serotonin 5-HT1A receptor was established by testing the claimed compound's ability to displace ^3 H!8-OHDPAT (dipropylaminotetralin) from the 5-HT1A serotonin receptor following the procedure of Hall et al., J. Neurochem. 44, 1685 (1985). […] The anxiolytic activity of buspirone is believed to be, at least partially, due to its 5-HT1A receptor affinity (Vander Maclen et al., Eur. J. Pharmacol. 1986, 129 (1-2) 133-130).

[3] = in vivo; cited from earlier work
[4] = test system: patients with mild to moderate Alzheimer's Disease; settings: cited from earlier work; for memory improvement in patients (in words): mild to moderate Alzheimer's Disease
[5] = target: T3, M2 receptor (rat cerebellum) (Rattus norvegicus, UniProt P10980); test: biochemical; settings: read-out: M2 3H QNB binding in rat cerebellum, IC50
T3 sequence (P10980 1-466): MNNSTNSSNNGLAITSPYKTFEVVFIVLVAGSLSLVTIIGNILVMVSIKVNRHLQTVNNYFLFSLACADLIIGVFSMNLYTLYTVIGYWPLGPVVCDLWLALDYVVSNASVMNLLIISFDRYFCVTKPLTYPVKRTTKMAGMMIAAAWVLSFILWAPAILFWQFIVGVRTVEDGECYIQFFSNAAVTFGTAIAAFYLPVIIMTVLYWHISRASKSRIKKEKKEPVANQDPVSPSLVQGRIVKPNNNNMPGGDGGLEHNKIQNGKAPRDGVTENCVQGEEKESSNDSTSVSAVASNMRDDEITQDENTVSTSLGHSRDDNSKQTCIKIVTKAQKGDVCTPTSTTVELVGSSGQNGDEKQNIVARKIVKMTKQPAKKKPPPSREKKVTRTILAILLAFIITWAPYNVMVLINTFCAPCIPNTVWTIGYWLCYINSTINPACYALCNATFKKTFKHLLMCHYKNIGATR

[6] = test system: Sprague-Dawley male rats (scopolamine-disrupted performance); test: Eight arm radial maze, reversal of scopolamine disrupted rat performance; assay type: in vivo; settings: ip, scopolamine HBr 0.3 mg/kg s.c., test compound i.p., read-out: minimum effective dose (MED), reversal of scopolamine disrupted rat performance
Method: The compound of Example 1 was also tested in the eight arm radial maze test procedure in which Sprague-Dawley male rats at 85% of their free feeding weight are trained to obtain two food pellets from food cups placed at the ends of four of the eight arms radiating from a circular central area of the maze, in a five minute period. After training to a level of error (return to a previously entered arm is error) equal to or less than 2, the rats performance is disrupted with scopolamine HBr (0.3 mg/kg, s.c.) and test compound dosage (i.p.). The number of errors are then determined and compared with control receiving scopolamine alone.

[7] = test system: Male CFW mice (scopolamine-induced hyperactivity); test: Reversal of scopolamine-induced hyperactivity in mouse swim tank; assay type: in vivo; settings: ip, 5 min, 0.3 mg/kg scopolamine.HBr, swim distance, read-out: minimum effective dose (MED), reversing the hyperactivity of scopolamine treated animals
Method: The compound of Example 1 was also tested in accordance with the procedure of Symons et al, Soc. Neuroscience Abstracts 12:2, 897 (1986) in which Male CFW mice, 25 to 35 grams in weight are given the test compound in suitable vehicle plus 0.3 mg/kg scopoolamine.HBr in suitable vehicle, i.p.(3 groups of 12 animals each) or vehicle alone (1 group of 12 animals ) or vehicle plus scopolamine. HBr (1 group of 12 animals). The rates are placed in a swim tank, individually, containing 10 cm H2 O for a period of 5 minutes and the distance each animal swims is recorded.

O=C1CC2(CCCC2)CC(=O)N1CCCCN1CCN(c2ncccn2)CC1 [buspirone]
5-HT1A receptor affinity (in words) [1]: potent affinity

O=C(Nc1nc(C(=O)NC2CN3CCC2CC3)cs1)c1ccc(OCc2ccccc2)cc1 (stereo not drawn) [Example 8]
inhibition at 1 µM (M1 receptor (rat cortex)): 85.8%

O=C(Nc1nc(C(=O)NCCCCN2CC3CCC(CC3)C2)cs1)c1ccc(O)cc1 [Example 11, N-4-(3-Azabicyclo 3.2.2!non-3-yl)butyl-2-4-hydroxybenzoyl!amino!-4-thiazolecarboxamide]
inhibition at 1 µM (M1 receptor (rat cortex)): 63.9%

CC(C)(C)c1cc(C(=O)Nc2nc(CC(=O)NCCN3CCN(c4ncccn4)CC3)cs2)cc(C(C)(C)C)c1O [Example 17]
inhibition at 0.1 µM (dopamine D-2 receptor; 0.1 μM): 5%

O=C(Cc1csc(NC(=O)c2ccc(F)cc2)n1)NCCCCN1CC2CCC(CC2)C1 [Example 12, N-4-(3-Azabicyclo 3.2.2!non-3-yl)butyl-2-(4-fluorobenzoyl)amino!-4-thiazoleacetamide]
inhibition at 1 µM (M1 receptor (rat cortex)): 57%

COc1ccccc1N1CCN(CCCOC(=O)Cc2csc(NC(=O)c3ccc(F)cc3)n2)CC1 [Example 13, 2-(4-Fluorobenzoyl)amino!-4-thiazoleacetic acid 3-4-(2-methoxyphenyl)-1-piperazinyl!propyl ester]
inhibition at 1 µM (dopamine D-2 receptor): 81%
5-HT1A Binding (% Inhibition at 1 μM) [2]: 100%

COC(=O)C1=CCCN(C)C1 [arecoline]
half-life (in words) [3]: short half-life
memory improvement in patients (in words) [4]: memory improvement

CC(C)(C)c1cc(C(=O)Nc2nc(C(=O)NCCN3CC4CCC(CC4)C3)cs2)cc(C(C)(C)C)c1O [Example 3]
inhibition at 1 µM (M1 receptor (rat cortex)): 70.5%

Nc1c2c(nc3ccccc13)CCCC2 [tacrine]
adverse side effects (in words) ([4]; especially at the higher doses where it is most effective): adverse side effects
memory improvement in patients (in words) [4]: improvement in memory

COc1ccccc1N1CCN(CCCOC(=O)Cc2csc(NC(=O)c3cc(C(C)(C)C)c(O)c(C(C)(C)C)c3)n2)CC1 [Example 14, 2-3,5-Bis(1,1-dimethylethyl)-4-hydroxyphenyl!carbonyl!amino!-4-thiazoleacetic acid 3-4-(2-methoxyphenyl)-1-piperazinyl!propyl ester]
inhibition at 1 µM (dopamine D-2 receptor): 91%
5-HT1A Binding (% Inhibition at 1 μM) [2]: 89%

CC(C)(C)c1cc(C(=O)Nc2nc(C(=O)NCCCN3CC4CCC(CC4)C3)cs2)cc(C(C)(C)C)c1O [Example 5, N-3-(3-Azabicyclo 3.2.2!non-3-yl)propyl-2-3.5-bis(1.1-dimethylethyl)-4-hydroxybenzoyl!amino!-4-thiazolecarboxamide]
inhibition at 1 µM (M1 receptor (rat cortex)): 78%

CC(C)(C)c1cc(C(=O)Nc2nc(C(=O)NC3CN4CCC3CC4)cs2)cc(C(C)(C)C)c1O (stereo not drawn) [Example 7]
inhibition at 1 µM (M1 receptor (rat cortex)): 104%

O=C(Nc1nc(C(=O)NCCCCN2CC3CCC(CC3)C2)cs1)c1ccc(OCc2ccccc2)cc1 [Example 9]
inhibition at 1 µM (M1 receptor (rat cortex)): 62%

CN(C)CCOC(=O)c1csc(NC(=O)c2cc(C(C)(C)C)c(O)c(C(C)(C)C)c2)n1 [Example 1, 2-3.5.-Bis(1.1-dimethylethyl)-4-hydroxybenzoyl!amino!-4-thiazolecarboxylic acid 2-(dimethylamino)ethyl ester]
IC50 [5]: 3.4 µM
minimal effective dose [6]: 3 mg/kg
minimal effective dose [7]: 3 mg/kg
IC50 (M1 receptor (rat cortex); rat cortex, [3H]pirenzepine, read-out: M1 3H PZ binding in rat cortex, IC50): 0.054 µM

COc1ccccc1N1CCN(CCOC(=O)Cc2csc(NC(=O)c3cc(C(C)(C)C)c(O)c(C(C)(C)C)c3)n2)CC1 [Example 15]
inhibition at 1 µM (dopamine D-2 receptor): 51%

O=C(Nc1nc(C(=O)NCCCN2CC3CCC(CC3)C2)cs1)c1ccc(O)cc1 [Example 10, N-3-(3- Azabicyclo 3.2.2!non-3-yl)propyl-2-4-hydroxybenzoyl!amino-4-thiazolecarboxamide]
inhibition at 1 µM (M1 receptor (rat cortex)): 58.7%

CC(C)(C)c1cc(C(=O)Nc2nc(C(=O)OCCN3CC4CCC(CC4)C3)cs2)cc(C(C)(C)C)c1O [Example 4, 2-3.5-Bis(1.1-dimethylethyl)-4-hydroxybenzoyl!amino !-4-thiazolecarboxylic acid 2-(3-azabicyclo 3.2.2.!non-3-yl)ethyl ester]
inhibition at 1 µM (M1 receptor (rat cortex)): 90.6%

CC(C)(C)c1cc(C(=O)Nc2nc(C(=O)NCCCCN3CC4CCC(CC4)C3)cs2)cc(C(C)(C)C)c1O [Example 6, N-4-(3-Azabicyclo 3.2.21non-3-yl)butyl!-2-3,5-bis(1,1-dimethylethyl)-4-hydroxybenzoyl!amino!-4-thiazolecarboxamide]
inhibition at 1 µM (M1 receptor (rat cortex)): 86%

O=C(Cc1csc(NC(=O)c2ccc(F)cc2)n1)OCCN1CCN(c2ncccn2)CC1 [Example 16, 2-(4-Fluorobenzoyl)amino!-4-thiazoleacetic acid 2-4-(2-pyrimidinyl)-1-piperazinyl!ethyl ester]
inhibition at 1 µM (dopamine D-2 receptor): 34%

CN(C)CCNC(=O)c1csc(NC(=O)c2cc(C(C)(C)C)c(O)c(C(C)(C)C)c2)n1 [Example 2, 2-3,5,-Bis(1.1-dimethylethyl)-4-hydroxybenzoyl!amino!-N-2-(dimethylamino)ethyl!-4-thiazolecarboxamide]
inhibition at 1 µM (M1 receptor (rat cortex); 1 μM, rat cortex, [3H]pirenzepine): 98.6%
